Laboratory results reported in patent US8846710B2, “Method of preferentially inducing the biosynthesis of interferon” (3M Innovative Properties Company, priority 2005, dated 2014).

tested on: tumor necrosis factor (α) (TNF-α); assay: Cytokine induction in human cells: TNF-α secreted by PBMC into culture media (ORIGEN M-Series immunoassay); type: cell-based; details: Table 11; human PBMC; median where tested in more than one experiment
Source text: (§1) Cytokine Induction in Human Cells
(§2) An in vitro human blood cell system is used to assess cytokine induction. Activity is based on the measurement of interferon (α) and tumor necrosis factor (α) (IFN-α and TNF-α, respectively) secreted into culture media as described by Testerman et. al. in “Cytokine Induction by the Immunomodulators Imiquimod and S-27609”, Journal of Leukocyte Biology, 58, 365-372 (September, 1995).
(§3) Blood Cell Preparation for Culture
(§4) Whole blood from healthy human donors is collected by venipuncture into vacutainer tubes or syringes containing EDTA. Peripheral blood mononuclear cells (PBMC) are separated from whole blood by density gradient centrifugation using HISTOPAQUE-1077 (Sigma, St. Louis, Mo.) or Ficoll-Paque Plus (Amersham Biosciences Piscataway, N.J.). Blood is diluted 1:1 with Dulbecco's Phosphate Buffered Saline (DPBS) or Hank's Balanced Salts Solution (HBSS). Alternately, whole blood is placed in Accuspin (Sigma) or LeucoSep (Oreiner Bio-One, Inc., Longwood, Fla.) centrifuge frit tubes containing density gradient medium. The PBMC layer is collected and washed twice with DPBS or HBSS and re-suspended at 4×10^6 cells/mL in RPMI complete. The PBMC suspension is added to 96 well flat bottom sterile tissue culture plates containing an equal volume of RPMI complete media containing test compound.
(§5) The compounds are solubilized in dimethyl sulfoxide (DMSO). The DMSO concentration should not exceed a final concentration of 1% for addition to the culture wells. The compounds are generally tested at concentrations ranging from 30-0.014 μM. Controls include cell samples with media only, cell samples with DMSO only (no compound), and cell samples with reference compound.
(§6) The solution of test compound is added at 60 μM to the first well containing RPMI complete and serial 3 fold dilutions are made in the wells. The PBMC suspension is then added to the wells in an equal volume, bringing the test compound concentrations to the desired range (usually 30-0.014 μM). The final concentration of PBMC suspension is 2×10^6 cells/mL. The plates are covered with sterile plastic lids, mixed gently and then incubated for 18 to 24 hours at 37° C. in a 5% carbon dioxide atmosphere.
(§7) Following incubation the plates are centrifuged for 10 minutes at 1000 rpm (approximately 200×g) at 4° C. The cell-free culture supernatant is removed and transferred to sterile polypropylene tubes. Samples are maintained at −30 to −70° C. until analysis. The samples are analyzed for IFN-α by ELISA and for TNF-α by IGEN/BioVeris Assay.
(§8) Interferon (α) and Tumor Necrosis Factor (α) Analysis
The TNF-α concentration is determined by ORIGEN M-Series Immunoassay and read on an IGEN M-8 analyzer from BioVeris Corporation, formerly known as IGEN International, Gaithersburg, Md. The immunoassay uses a human TNF-α capture and detection antibody pair (Catalog Numbers AHC3419 and AHC3712) from Biosource International, Camarillo, Calif. Results are expressed in pg/mL.
(§9) In total, the data output of the assay consists of concentration values of TNF-α and IFN-α (y-axis) as a function of compound concentration (x-axis).
Analysis of the data has two steps. First, the greater of the mean DMSO (DMSO control wells) or the experimental background (usually 20 pg/mL for IFN-α and 40 pg/mL for TNF-α) is subtracted from each reading. If any negative values result from background subtraction, the reading is reported as “*”, and is noted as not reliably detectable. In subsequent calculations and statistics, “*”, is treated as a zero. Second, all background subtracted values are multiplied by a single adjustment ratio to decrease experiment to experiment variability. The adjustment ratio is the area of the reference compound in the new experiment divided by the expected area of the reference compound based on the past 61 experiments (unadjusted readings). […]

| Compound | Minimum Effective Concentration TNF [µM] |
| --- | --- |
| CCc1nc2c(N)nc3ccccc3c2n1CCCCNS(C)(=O)=O [Analog 49] | 3.33 |
| CCCc1nc2c(N)nc3ccccc3c2n1CCCCNS(C)(=O)=O [Analog 50] | 1.11 |
| CCOCc1nc2c(N)nc3ccccc3c2n1CCCCNS(C)(=O)=O [Analog 51] | 1.11 |
| COCCc1nc2c(N)nc3ccccc3c2n1CCCCNS(C)(=O)=O [Analog 52] | 0.37 |
| Cc1nc2c(N)nc3ccccc3c2n1CCCCNC(=O)N1CCOCC1 [Analog 53] | 10 |
| CCc1nc2c(N)nc3ccccc3c2n1CCCCNC(=O)N1CCOCC1 [Analog 54] | 3.33 |
| CCCc1nc2c(N)nc3ccccc3c2n1CCCCNC(=O)N1CCOCC1 [Analog 55] | 1.11 |
| CCOCc1nc2c(N)nc3ccccc3c2n1CCCCNC(=O)N1CCOCC1 [Analog 56] | 1.11 |
| COCCc1nc2c(N)nc3ccccc3c2n1CCCCNC(=O)N1CCOCC1 [Analog 57] | 0.04 |
| CCc1nc2c(N)nc3ccccc3c2n1CCCNS(C)(=O)=O [Analog 59] | 30 |
| CCCc1nc2c(N)nc3ccccc3c2n1CCCNS(C)(=O)=O [Analog 60] | 10 |
| CCOCc1nc2c(N)nc3ccccc3c2n1CCCNS(C)(=O)=O [Analog 61] | 10 |

same assay, conditions: Table 11; human PBMC; median; * = TNF below experimental background of 40 pg/mL

| Compound | Maximal Response TNF [pg/mL] |
| --- | --- |
| CCc1nc2c(N)nc3ccccc3c2n1CCCCNS(C)(=O)=O [Analog 49] | 679 |
| CCCc1nc2c(N)nc3ccccc3c2n1CCCCNS(C)(=O)=O [Analog 50] | 850 |
| CCOCc1nc2c(N)nc3ccccc3c2n1CCCCNS(C)(=O)=O [Analog 51] | 1439 |
| COCCc1nc2c(N)nc3ccccc3c2n1CCCCNS(C)(=O)=O [Analog 52] | 1931 |
| Cc1nc2c(N)nc3ccccc3c2n1CCCCNC(=O)N1CCOCC1 [Analog 53] | 1400 |
| CCc1nc2c(N)nc3ccccc3c2n1CCCCNC(=O)N1CCOCC1 [Analog 54] | 2570 |
| CCCc1nc2c(N)nc3ccccc3c2n1CCCCNC(=O)N1CCOCC1 [Analog 55] | 1298 |
| CCOCc1nc2c(N)nc3ccccc3c2n1CCCCNC(=O)N1CCOCC1 [Analog 56] | 1580 |
| COCCc1nc2c(N)nc3ccccc3c2n1CCCCNC(=O)N1CCOCC1 [Analog 57] | 3494 |
| CCc1nc2c(N)nc3ccccc3c2n1CCCNS(C)(=O)=O [Analog 59] | 238 |
| CCCc1nc2c(N)nc3ccccc3c2n1CCCNS(C)(=O)=O [Analog 60] | 109 |
| CCOCc1nc2c(N)nc3ccccc3c2n1CCCNS(C)(=O)=O [Analog 61] | 463 |

tested on: interferon (α) (IFN-α); assay: Cytokine induction in human cells: IFN-α secreted by PBMC into culture media (ELISA); type: cell-based; details: Table 11; human PBMC; median where tested in more than one experiment
Source text: as §1, §2, §3, §4, §5, §6, §7, §8
IFN-α concentration is determined with a human multi-subtype calorimetric sandwich ELISA (Catalog Number 41105) from PBL Biomedical Laboratories, Piscataway, N.J. Results are expressed in pg/mL.
as §9
Analysis of the data has two steps. First, the greater of the mean DMSO (DMSO control wells) or the experimental background (usually 20 pg/mL for IFN-α and 40 pg/mL for TNF-α) is subtracted from each reading. If any negative values result from background subtraction, the reading is reported as “*”, and is noted as not reliably detectable. In subsequent calculations and statistics, “*”, is treated as a zero. Second, all background subtracted values are multiplied by a single adjustment ratio to decrease experiment to experiment variability. The adjustment ratio is the area of the reference compound in the new experiment divided by the expected area of the reference compound based on the past 61 experiments (unadjusted readings). […] The reference compound used is 2-[4-amino-2-ethoxymethyl-6,7,8,9-tetrahydro-α,α-dimethyl-1H-imidazo[4,5-c]quinolin-1-yl]ethanol hydrate (U.S. Pat. No. 5,352,784; Example 91) and the expected area is the sum of the median dose values from the past 61 experiments. […]

| Compound | Maximal Response IFN [pg/mL] | Minimum Effective Concentration IFN [µM] |
| --- | --- | --- |
| CCc1nc2c(N)nc3ccccc3c2n1CCCCNS(C)(=O)=O [Analog 49] | 2712 | 0.04 |
| CCCc1nc2c(N)nc3ccccc3c2n1CCCCNS(C)(=O)=O [Analog 50] | 2184 | 0.12 |
| CCOCc1nc2c(N)nc3ccccc3c2n1CCCCNS(C)(=O)=O [Analog 51] | 2581 | 0.04 |
| COCCc1nc2c(N)nc3ccccc3c2n1CCCCNS(C)(=O)=O [Analog 52] | 7594 | 0.014 |
| Cc1nc2c(N)nc3ccccc3c2n1CCCCNC(=O)N1CCOCC1 [Analog 53] | 1538 | 0.12 |
| CCc1nc2c(N)nc3ccccc3c2n1CCCCNC(=O)N1CCOCC1 [Analog 54] | 4975 | 0.37 |
| CCCc1nc2c(N)nc3ccccc3c2n1CCCCNC(=O)N1CCOCC1 [Analog 55] | 11255 | 0.12 |
| CCOCc1nc2c(N)nc3ccccc3c2n1CCCCNC(=O)N1CCOCC1 [Analog 56] | 3433 | 0.12 |
| COCCc1nc2c(N)nc3ccccc3c2n1CCCCNC(=O)N1CCOCC1 [Analog 57] | 8889 | 0.014 |
| CCc1nc2c(N)nc3ccccc3c2n1CCCNS(C)(=O)=O [Analog 59] | 1912 | 1.11 |
| CCCc1nc2c(N)nc3ccccc3c2n1CCCNS(C)(=O)=O [Analog 60] | 2148 | 1.11 |
| CCOCc1nc2c(N)nc3ccccc3c2n1CCCNS(C)(=O)=O [Analog 61] | 1338 | 0.37 |
